The values that follow come from patent US20260274892A1, “MACROCYCLIC BROAD SPECTRUM ANTIBIOTICS” (RQx Pharmaceuticals, Inc., priority 2017, published 2026).

In assay [1] the test system is Methicillin Resistant Staphylococcus aureus strain USA 200. Nature of the assay: Minimum inhibitory concentration (MIC), CLSI broth micro-dilution, S. aureus. Format: cell-based. To be noted: Staphylococcus aureus, MRSA / USA200; Table 6; MRSA USA 200; cation adjusted Mueller Hinton Broth + 0.002% Tween-80; 35° C., 22 hours. In a few lines: (§1)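 Colonies grown 20 h at 35° C on Trypticase Soy agar (MRSA) or Luria agar (E. coli) were suspended in cation-adjusted Mueller Hinton broth with 0.002% Tween-80. Suspensions were added at OD600 0.0005 to 10-point twofold compound dilutions, then incubated 22 h at 35° C.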
Background: Broth dilution looks for growth in wells or tubes with falling amounts of substance.

For assay [2], the system named is Escherichia coli ATCC 25922. Nature of the assay: Minimum inhibitory concentration (MIC), CLSI broth micro-dilution, E. coli. Format: cell-based. As to conditions: Escherichia coli, ATCC25922, 22 h, Table 6, cation adjusted Mueller Hinton Broth + 0.002% Tween-80, 35° C. The method in brief: as §1

By MIC is commonly meant the smallest concentration in the dilution series that meets the test's criterion for growth inhibition.

Molecules are shown by their SMILES.

For `Cc1nc(-c2ccc(C3CCCCC3)cc2)ncc1C(=O)N[C@@H](CCN)C(=O)N(C)[C@@H]1C(=O)N[C@@H](C)C(=O)N[C@H](C(=O)NCC#N)Cc2ccc(OCCN)c(c2)-c2cc1ccc2OCCN` (racemic) [Compound 233, rac-(8S,11S,14S)-3,18-bis(2-aminoethoxy)-N-(cyanomethyl)-11-methyl-14-[methyl-[rac-(2S)-4-amino-2-[[2-(4-cyclohexylphenyl)-4-methyl-pyrimidine-5-carbonyl]amino]butanoyl]amino]-10,13-dioxo-9,12-diazatricyclo[13.3.1.12,6]icosa-1(18),2(20),3,5,15(19),16-hexaene-8-carboxamide], the MIC turned out to be 0.016 µM in assay [1] and 0.13 µM in assay [2].
The matching figures for `C[C@@H]1NC(=O)[C@@H](N(C)C(=O)[C@H](CCN)NC(=O)[C@H]2CC[C@H](c3ccc(C(C)(C)C)cc3)CC2)c2ccc(OCCN)c(c2)-c2cc(ccc2OCCN)C[C@@H](C(=O)NCC#N)NC1=O` [Compound 391, rac-(8S,11S,14S)-3,18-bis(2-aminoethoxy)-N-(cyanomethyl)-11-methyl-14-[methyl-[rac-(2S)-4-amino-2-[[4-(4-tert-butylphenyl)cyclohexanecarbonyl]amino]butanoyl]amino]-10,13-dioxo-9,12-diazatricyclo[13.3.1.12,6]icosa-1(18),2(20),3,5,15(19),16-hexaene-8-carboxamide]: 0.031 µM and 0.25 µM.
Take `CCCCCc1ccc(-c2nc(C)c(C(=O)N[C@@H](CCN)C(=O)N(C)[C@@H]3C(=O)N[C@@H](C)C(=O)N[C@H](C(=O)NCC#N)Cc4ccc(O)c(c4)-c4cc3ccc4OCCN)c(C)n2)cc1` (racemic) [Compound 521, rac-(8S,11S,14S)-18-(2-aminoethoxy)-N-(cyanomethyl)-3-hydroxy-11-methyl-14-[methyl-[rac-(2S)-4-amino-2-[[4,6-dimethyl-2-(4-pentylphenyl)pyrimidine-5-carbonyl]amino]butanoyl]amino]-10,13-dioxo-9,12-diazatricyclo[13.3.1.12,6]icosa-1(18),2(20),3,5,15(19),16-hexaene-8-carboxamide]: the results for the minimal inhibitory concentration (MIC) in assay [1] and in assay [2] were 0.047 µM and 0.2 µM, respectively.
The like results for `CCCCCc1ncc(-c2ccc(C(=O)N[C@@H](CCN)C(=O)N(C)[C@@H]3C(=O)N[C@@H](C)C(=O)N[C@H](C(=O)NCC#N)Cc4ccc(OCCN)c(c4)-c4cc3ccc4OCCN)c(C)n2)cn1` (racemic) [Compound 209, rac-(8S,11S,14S)-3,18-bis(2-aminoethoxy)-N-(cyanomethyl)-11-methyl-14-[methyl-[rac-(2S)-4-amino-2-[[2-methyl-6-(2-pentylpyrimidin-5-yl)pyridine-3-carbonyl]amino]butanoyl]amino]-10,13-dioxo-9,12-diazatricyclo[13.3.1.12,6]icosa-1(18),2(20),3,5,15(19),16-hexaene-8-carboxamide] were, in that order, 0.26 µM and 2.1 µM.
As to `Cc1nc(-c2ccc(C(C)(C)C)cc2)nc(C)c1C(=O)N[C@@H](CCN)C(=O)N(C)[C@@H]1C(=O)N[C@@H](C)C(=O)N[C@H](C(=O)NCC#N)Cc2ccc(OCCCCN)c(c2)-c2cc1ccc2OCCCCN` (racemic) [Compound 437, rac-(8S,11S,14S)-3,18-bis(4-aminobutoxy)-N-(cyanomethyl)-11-methyl-14-[methyl-[rac-(2S)-4-amino-2-[[2-(4-tert-butylphenyl)-4,6-dimethyl-pyrimidine-5-carbonyl]amino]butanoyl]amino]-10,13-dioxo-9,12-diazatricyclo[13.3.1.12,6]icosa-1(18),2(20),3,5,15(19),16-hexaene-8-carboxamide], the results for the MIC in assay [1] and in assay [2] were 0.031 µM and 0.38 µM, respectively.
As for `CCCCCCCc1ccc(C(=O)N[C@@H](CCN)C(=O)N[C@@H]2C(=O)N[C@@H](CC)C(=O)N[C@H](C(=O)NCC#N)Cc3ccc(OCCN)c(c3)-c3cc2ccc3OCCN)c(C)c1` (racemic) [Compound 480, rac-(8S,11S,14S)-3,18-bis(2-aminoethoxy)-N-(cyanomethyl)-11-ethyl-10,13-dioxo-14-[[rac-(2S)-4-amino-2-[(4-heptyl-2-methyl-benzoyl)amino]butanoyl]amino]-9,12-diazatricyclo[13.3.1.12,6]icosa-1(18),2(20),3,5,15(19),16-hexaene-8-carboxamide], the results for the MIC in assay [1] and in assay [2] were 0.061 µM and 1.6 µM, respectively.
As to `Cc1nc(-c2ccc(OC(C)(C)C)cc2)nc(C)c1C(=O)N[C@@H](CCN)C(=O)N(C)[C@@H]1C(=O)N[C@@H](C)C(=O)N[C@H](C(=O)NCC#N)Cc2ccc(OCCN)c(c2)-c2cc1ccc2OCCN` (racemic) [Compound 342, rac-(8S,11S,14S)-3,18-bis(2-aminoethoxy)-N-(cyanomethyl)-11-methyl-14-[methyl-[rac-(2S)-4-amino-2-[[2-(4-tert-butoxyphenyl)-4,6-dimethyl-pyrimidine-5-carbonyl]amino]butanoyl]amino]-10,13-dioxo-9,12-diazatricyclo[13.3.1.12,6]icosa-1(18),2(20),3,5,15(19),16-hexaene-8-carboxamide], the MIC came to 0.097 µM in assay [1] and 0.39 µM in assay [2].
The like results for `Cc1nc(-c2ccc(C(C)(C)C)cc2)c(Br)cc1C(=O)N[C@@H](CCN)C(=O)N(C)[C@@H]1C(=O)N[C@@H](C)C(=O)N[C@H](C(=O)NCC#N)Cc2ccc(OCCN)c(c2)-c2cc1ccc2OCCN` (racemic) [Compound 401, rac-(8S,11S,14S)-3,18-bis(2-aminoethoxy)-N-(cyanomethyl)-11-methyl-14-[methyl-[rac-(2S)-4-amino-2-[[5-bromo-6-(4-tert-butylphenyl)-2-methyl-pyridine-3-carbonyl]amino]butanoyl]amino]-10,13-dioxo-9,12-diazatricyclo[13.3.1.12,6]icosa-1(18),2(20),3,5,15(19),16-hexaene-8-carboxamide] were, in that order, 0.016 µM and 0.25 µM.
Consider `Cc1nc(-c2ccc(OC3CCCC3)cc2)nc(C)c1C(=O)N[C@@H](CCN)C(=O)N(C)[C@@H]1C(=O)N[C@@H](C)C(=O)N[C@H](C(=O)NCC#N)Cc2ccc(OCCN)c(c2)-c2cc1ccc2OCCN` (racemic) [Compound 336, rac-(8S,11S,14S)-3,18-bis(2-aminoethoxy)-N-(cyanomethyl)-11-methyl-14-[methyl-[rac-(2S)-4-amino-2-[[2-[4-(cyclopentoxy)phenyl]-4,6-dimethyl-pyrimidine-5-carbonyl]amino]butanoyl]amino]-10,13-dioxo-9,12-diazatricyclo[13.3.1.12,6]icosa-1(18),2(20),3,5,15(19),16-hexaene-8-carboxamide], for which the MIC in assay [1] came to 0.016 µM; in assay [2], 0.15 µM.
Consider `CCCCCCOc1ccc2nc(C)c(C(=O)N[C@@H](CCN)C(=O)N(C)[C@@H]3C(=O)N[C@@H](C)C(=O)N[C@H](C(=O)NCC#N)Cc4ccc(OCCN)c(c4)-c4cc3ccc4OCCN)cc2c1` (racemic) [Compound 396, rac-(8S,11S,14S)-3,18-bis(2-aminoethoxy)-N-(cyanomethyl)-11-methyl-14-[methyl-[rac-(2S)-4-amino-2-[(6-hexoxy-2-methyl-quinoline-3-carbonyl)amino]butanoyl]amino]-10,13-dioxo-9,12-diazatricyclo[13.3.1.12,6]icosa-1(18),2(20),3,5,15(19),16-hexaene-8-carboxamide], for which the MIC in assay [1] worked out at 0.016 µM; in assay [2], 0.5 µM.
The matching figures for `Cc1nc(N2CCC(C(C)(C)C)CC2)nc(C)c1C(=O)N[C@@H](CCN)C(=O)N(C)[C@@H]1C(=O)N[C@@H](C)C(=O)N[C@H](C(=O)NCC#N)Cc2ccc(OCCN)c(c2)-c2cc1ccc2OCCN` (racemic) [Compound 315, rac-(8S,11S,14S)-3,18-bis(2-aminoethoxy)-N-(cyanomethyl)-11-methyl-14-[methyl-[rac-(2S)-4-amino-2-[[2-(4-tert-butyl-1-piperidyl)-4,6-dimethyl-pyrimidine-5-carbonyl]amino]butanoyl]amino]-10,13-dioxo-9,12-diazatricyclo[13.3.1.12,6]icosa-1(18),2(20),3,5,15(19),16-hexaene-8-carboxamide]: 0.016 µM and 0.25 µM.
The matching figures for `Cc1nc(-c2ccc3c(c2)OCCO3)nc(C)c1C(=O)N[C@@H](CCN)C(=O)N(C)[C@@H]1C(=O)N[C@@H](C)C(=O)N[C@H](C(=O)NCC#N)Cc2ccc(OCCN)c(c2)-c2cc1ccc2OCCN` (racemic) [Compound 334, rac-(8S,11S,14S)-3,18-bis(2-aminoethoxy)-N-(cyanomethyl)-11-methyl-14-[methyl-[rac-(2S)-4-amino-2-[[2-(2,3-dihydro-1,4-benzodioxin-6-yl)-4,6-dimethyl-pyrimidine-5-carbonyl]amino]butanoyl]amino]-10,13-dioxo-9,12-diazatricyclo[13.3.1.12,6]icosa-1(18),2(20),3,5,15(19),16-hexaene-8-carboxamide]: 0.5 µM and 4 µM.
Regarding `Cc1nc(-c2ccc(C(C)(C)C)cc2)nc(C)c1C(=O)N[C@@H](C)C(=O)N[C@@H](CCN)C(=O)N(C)[C@@H]1C(=O)N[C@@H](C)C(=O)N[C@H](C(=O)NCC#N)Cc2ccc(OCCN)c(c2)-c2cc1ccc2OCCN` (racemic) [Compound 464, rac-(8S,11S,14S)-3,18-bis(2-aminoethoxy)-N-(cyanomethyl)-11-methyl-14-[methyl-[rac-(2S)-4-amino-2-[[rac-(2S)-2-[[2-(4-tert-butylphenyl)-4,6-dimethyl-pyrimidine-5-carbonyl]amino]propanoyl]amino]butanoyl]amino]-10,13-dioxo-9,12-diazatricyclo[13.3.1.12,6]icosa-1(18),2(20),3,5,15(19),16-hexaene-8-carboxamide], the results for the MIC in assay [1] and in assay [2] were 0.063 µM and 4 µM, respectively.
